Where a SMILES comes first, the peptide text is derived from it. Bridges are numbered along the chain shown (N, C = ends). [ ]: non-standard residue; d: D form. Nle(6-COOH) = N[C@@H](CCCCC(=O)O)C(=O)O; Nle = CCCC[C@H](N)C(=O)O
What was measured:
Type in all cases: cell-based
[1] = Antagonist activity at rat alpha6alpha3beta4 nAChR expressed in Xenopus laevis oocytes assessed as inhibition of Ach-induced response at -70 mV holding potential by two electrode voltage-clamp assay
[2] = target: T1, Neuronal acetylcholine receptor; alpha3/beta2 (Rattus norvegicus) (UniProt P04757+P12390); assay: Antagonist activity at rat alpha3beta2 nACHR expressed in Xenopus laevis oocytes assessed as Ach-induced current amplitude at 10 nM at -70 mV holding potential by two electrode voltage-clamp assay relative to control
[3] = target: nicotinic acetylcholine receptor alpha6/alpha3/beta2/beta3 (Rattus norvegicus, UniProt P04757+P12390+P12391+P43143); assay: Antagonist activity at rat alpha6alpha3beta2beta3 nAChR expressed in Xenopus laevis oocytes assessed as Ach-induced current amplitude at 10 nM at -70 mV holding potential by two electrode voltage-clamp assay relative to control
Chain of nicotinic acetylcholine receptor alpha6/alpha3/beta2/beta3 (P04757 whole entry): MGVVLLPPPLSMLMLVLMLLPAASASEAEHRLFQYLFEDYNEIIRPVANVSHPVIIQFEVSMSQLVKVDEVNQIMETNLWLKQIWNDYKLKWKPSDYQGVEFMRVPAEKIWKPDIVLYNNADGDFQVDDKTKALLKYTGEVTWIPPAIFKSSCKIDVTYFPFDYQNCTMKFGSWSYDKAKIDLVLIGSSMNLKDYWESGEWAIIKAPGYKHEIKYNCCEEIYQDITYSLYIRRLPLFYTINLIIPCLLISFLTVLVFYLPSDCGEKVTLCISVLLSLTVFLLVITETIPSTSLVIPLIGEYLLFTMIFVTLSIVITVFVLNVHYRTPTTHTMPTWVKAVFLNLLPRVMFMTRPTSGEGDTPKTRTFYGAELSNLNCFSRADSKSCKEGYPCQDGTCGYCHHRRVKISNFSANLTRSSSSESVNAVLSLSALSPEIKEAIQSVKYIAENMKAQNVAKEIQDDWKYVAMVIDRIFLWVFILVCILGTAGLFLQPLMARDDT
Chain of nicotinic acetylcholine receptor alpha6/alpha3/beta2/beta3 (P12390 whole entry): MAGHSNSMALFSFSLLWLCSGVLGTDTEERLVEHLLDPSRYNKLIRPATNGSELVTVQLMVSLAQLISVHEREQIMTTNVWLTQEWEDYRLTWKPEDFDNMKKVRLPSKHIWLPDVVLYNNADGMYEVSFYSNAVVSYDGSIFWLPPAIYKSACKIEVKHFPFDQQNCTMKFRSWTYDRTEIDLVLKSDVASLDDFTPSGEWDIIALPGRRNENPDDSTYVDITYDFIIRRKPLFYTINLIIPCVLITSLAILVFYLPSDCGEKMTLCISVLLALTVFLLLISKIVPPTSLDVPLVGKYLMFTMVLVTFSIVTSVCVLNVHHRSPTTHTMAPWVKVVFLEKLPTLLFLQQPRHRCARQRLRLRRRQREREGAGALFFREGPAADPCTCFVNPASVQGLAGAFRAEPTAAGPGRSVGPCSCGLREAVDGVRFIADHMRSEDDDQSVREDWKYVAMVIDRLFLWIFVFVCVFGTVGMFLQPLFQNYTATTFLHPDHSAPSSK
Chain of nicotinic acetylcholine receptor alpha6/alpha3/beta2/beta3 (P12391 whole entry): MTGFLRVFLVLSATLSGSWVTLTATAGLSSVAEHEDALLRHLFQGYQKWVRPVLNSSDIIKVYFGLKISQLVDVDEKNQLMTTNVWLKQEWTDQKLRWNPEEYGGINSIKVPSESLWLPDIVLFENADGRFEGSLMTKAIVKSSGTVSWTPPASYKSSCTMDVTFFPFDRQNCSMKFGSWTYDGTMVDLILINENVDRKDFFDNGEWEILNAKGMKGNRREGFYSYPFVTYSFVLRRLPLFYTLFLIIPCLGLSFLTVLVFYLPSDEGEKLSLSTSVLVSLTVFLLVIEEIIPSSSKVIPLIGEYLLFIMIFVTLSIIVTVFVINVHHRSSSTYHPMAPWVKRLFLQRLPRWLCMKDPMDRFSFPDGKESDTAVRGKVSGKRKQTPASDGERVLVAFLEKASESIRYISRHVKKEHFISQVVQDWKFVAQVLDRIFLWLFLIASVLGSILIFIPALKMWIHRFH
Chain of nicotinic acetylcholine receptor alpha6/alpha3/beta2/beta3 (P43143 whole entry): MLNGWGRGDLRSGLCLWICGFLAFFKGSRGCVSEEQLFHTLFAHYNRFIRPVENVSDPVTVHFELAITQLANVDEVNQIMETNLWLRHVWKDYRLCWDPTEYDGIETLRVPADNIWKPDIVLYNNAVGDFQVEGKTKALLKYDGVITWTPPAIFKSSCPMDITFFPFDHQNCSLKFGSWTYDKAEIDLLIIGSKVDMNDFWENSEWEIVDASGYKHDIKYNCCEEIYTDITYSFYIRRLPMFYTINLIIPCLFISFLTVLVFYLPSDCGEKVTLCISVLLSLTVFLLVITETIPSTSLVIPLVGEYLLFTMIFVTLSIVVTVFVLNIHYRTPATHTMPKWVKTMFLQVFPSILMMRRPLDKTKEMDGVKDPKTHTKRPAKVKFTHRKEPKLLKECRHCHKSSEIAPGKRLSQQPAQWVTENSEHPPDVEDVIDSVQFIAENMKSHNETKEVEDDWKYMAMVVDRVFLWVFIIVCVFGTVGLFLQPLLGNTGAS

[4] = target: T1, Neuronal acetylcholine receptor; alpha3/beta2 (Rattus norvegicus); assay: Antagonist activity at rat alpha3beta2 nACHR expressed in Xenopus laevis oocytes assessed as Ach-induced current amplitude at 100 nM at -70 mV holding potential by two electrode voltage-clamp assay relative to control; design: scale not given: the % may be the effect or the level left

| SMILES | IC50 [1] [nM] | inhibition [2] [%] | inhibition at 0.01 µM [3] [%] | Activity [4] [%] |
| --- | --- | --- | --- | --- |
| CC[C@H](C)[C@@H]1NC(=O)[C@H](Cc2cnc[nH]2)NC(=O)[C@@H]2CSSC[C@H](NC(=O)CN)C(=O)N[C@@H](CSSC[C@@H](C(N)=O)NC(=O)[C@H](CC(C)C)NC(=O)[C@H](CCC(=O)O)NC(=O)[C@@H]3CCCN3C(=O)[C@H](Cc3cnc[nH]3)NC(=O)[C@H](CCCCC(=O)O)NC1=O)C(=O)N[C@@H](CO)C(=O)N[C@@H](Cc1cnc[nH]1)C(=O)N1CCC[C@H]1C(=O)N[C@@H](C)C(=O)N2 (H-GCCSHPACHI[Nle(6-COOH)]HPELC-NH2; disulfide 2-8, 3-16) | 43.1 | – | – | – |
| CC[C@H](C)[C@@H]1NC(=O)[C@H](CCC(=O)O)NC(=O)[C@@H]2CCCN2C(=O)[C@H](Cc2cnc[nH]2)NC(=O)[C@H](CCCCC(=O)O)NC(=O)[C@H]([C@@H](C)CC)NC(=O)[C@H](Cc2cnc[nH]2)NC(=O)[C@@H]2CSSC[C@H](NC(=O)CN)C(=O)N[C@@H](CSSC[C@@H](C(N)=O)NC1=O)C(=O)N[C@@H](CO)C(=O)N[C@@H](Cc1cnc[nH]1)C(=O)N1CCC[C@H]1C(=O)N[C@@H](C)C(=O)N2 (H-GCCSHPACHI[Nle(6-COOH)]HPEIC-NH2; disulfide 2-8, 3-16) | 77.3 | – | – | – |
| CCCC[C@@H]1NC(=O)[C@H](Cc2cnc[nH]2)NC(=O)[C@@H]2CSSC[C@H](NC(=O)CN)C(=O)N[C@@H](CSSC[C@@H](C(N)=O)NC(=O)[C@H]([C@@H](C)CC)NC(=O)[C@H](CCC(=O)O)NC(=O)[C@@H]3CCCN3C(=O)[C@H](Cc3cnc[nH]3)NC(=O)[C@H](CCCCC(=O)O)NC1=O)C(=O)N[C@@H](CO)C(=O)N[C@@H](Cc1cnc[nH]1)C(=O)N1CCC[C@H]1C(=O)N[C@@H](C)C(=O)N2 (H-GCCSHPACH[Nle][Nle(6-COOH)]HPEIC-NH2; disulfide 2-8, 3-16) | 205 | 8 | 90 | 2 |
| CCCC[C@@H]1NC(=O)[C@H](Cc2cnc[nH]2)NC(=O)[C@@H]2CSSC[C@H](NC(=O)CN)C(=O)N[C@@H](CSSC[C@@H](C(N)=O)NC(=O)[C@H](CC(C)C)NC(=O)[C@H](CCC(=O)O)NC(=O)[C@@H]3CCCN3C(=O)[C@H](Cc3cnc[nH]3)NC(=O)[C@H](CCCCC(=O)O)NC1=O)C(=O)N[C@@H](CO)C(=O)N[C@@H](Cc1cnc[nH]1)C(=O)N1CCC[C@H]1C(=O)N[C@@H](C)C(=O)N2 (H-GCCSHPACH[Nle][Nle(6-COOH)]HPELC-NH2; disulfide 2-8, 3-16) | 120 | – | – | – |

Reference: ChEMBL document CHEMBL4364262 (J Med Chem, 2019)
